Reference: patent US7407969B2, “Respiratory syncytial virus replication inhibitors” (Janssen Pharmaceutica, N.V., priority 1999, dated 2008)
Where two headings read alike, the source gives them in different places.

Experiments:
[1] = system: Respiratory Syncytial Virus; experiment: microbe, parasite or virus in culture; assay type: cell-based; settings: for SI: selectivity index = CC50 divided by IC50
Method: (§1) The percent protection against cytopathology caused by viruses (antiviral activity or IC50) achieved by tested compounds and their cytotoxicity (CC50) were both calculated from dose-response curves.
(§2) Automated tetrazolium-based […] assays were used for determination of IC50 and CC50 of test compounds. Flat-bottom, 96-well plastic microtiter trays were filled with 180 μl of Eagle's Basal Medium, supplemented with 5% FCS (0% for FLU) and 20 mM Herpes buffer. Subsequently, stock solutions (7.8×final test concentration) of compounds were added in 45 μl volumes to a series of triplicate wells so as to allow simultaneous evaluation of their effects on virus- and mock-infected cells. Five five-fold dilutions were made directly in the microtiter trays using a robot system. Untreated virus controls, and HeLa cell controls were included in each test. Approximately 100 TCID50 Respiratory Syncytial Virus was added to two of the three rows in a volume of 50 μl. The same volume of medium was added to the third row to measure the cytotoxicity of the compounds at the same concentrations as those used to measure the antiviral activity. After two hours of incubation, a suspension (4×10^5 cells/ml) of HeLa cells was added to all wells in a volume of 50 μl. The cultures were incubated at 37° C. in a 5% CO2 atmosphere. Seven days after infection the cytotoxicity and the antiviral activity was examined spectrophotometrically. To each well of the microtiter tray, 25 μl of a solution of MIT (3-(4,5-dimethylthiazol-2-yl)-2,5-diphenyltetrazolium bromide) was added. The trays were further incubated at 37° C. for 2 hours, after which the medium was removed from each cup. Solubilization of the formazan crystals was achieved by adding 100 μl 2-propanol. Complete dissolution of the formazan crystals were obtained after the trays have been placed on a plate shaker for 10 min. Finally, the absorbances were read in an eight-channel computer-controlled photometer (Multiskan MCC, Flow Laboratories) at two wavelengths (540 and 690 nm). The absorbance measured at 690 nm was automatically subtracted from the absorbance at 540 nm, so as to eliminate the effects of non-specific absorption.

[2] = Cytotoxicity (CC50) in mock-infected HeLa cells, tetrazolium (MTT) colorimetric assay; assay type: cell-based; settings: human
Method: as §1
as §2, with “Complete dissolution of the formazan crystals were obtained after the trays have been placed on a plate shaker for 10 min.” left out

[3] = human respiratory syncytial virus, HeLa, 168 h

Row | Molecule | melting point | SI [1] | further results
1 | NCCN1CCC(Nc2nc3ccccc3n2Cc2ccnc3ccccc23)CC1 | 196 °C |  | 
2 | CCOCCOC(c1cccc2cccnc12)n1c(NC2CCN(CC(N)C(C)C)CC2)nc2ccccc21 (racemic) [Compound 31, (±)-N-[1-(2-amino-3-methylbutyl)-4-piperidinyl]-1-[(2-ethoxyethoxy)-8-quinolinyl-methyl]-1H-benzimidazol-2-amine] |  | 15849 | IC50 [1, 3]: 0.8 nM; CC50 at 7 days [2]: 12.7 µM
3 | CC(C)C(N)CN1CCC(Nc2nc3ccccc3n2C2CCCc3ccc(Br)nc32)CC1.Cl.Cl.Cl.O.O.O (racemic) [Compound 56, (±)-N-[1-(2-amino-3-methylbutyl)-4-piperidinyl]-1-(2-bromo-5,6,7,8-tetrahydro-8-quinolinyl)-1H-benzimidazol-2-amine trihydrochloride trihydrate] |  | 7943 | IC50 [1, 3]: 1.6 nM; CC50 at 7 days ([2]; cytotoxicity in mock-infected HeLa cells, 7 days, MTT, read-out: CC50): 12.7 µM
4 | (±)-N-[1-(2-amino-3-methylbutyl)-4-piperidinyl]-3-(quinolinylmethyl)-3H-imidazo[4,5-b]pyridin-2-amine [Compound 42] |  | >25119 | IC50 ([1]; antiviral activity against Respiratory Syncytial Virus, HeLa cells, 7 days after infection, MTT, read-out: IC50): 0.4 nM

Continued, in another order:

Row | melting point | Molecule | SI [1] | further results
5 | 202 °C | CCOC(c1cccc2cccnc12)n1c(NC2CCN(C(CN)C(C)C)CC2)nc2ccccc21 (racemic) |  | 
6 | 230 °C | CC(C)C(N)CN1CCC(Nc2nc3ccccc3n2CC2CCc3ccccc3N2)CC1.Cl.Cl.Cl.Cl.O (racemic) (hydrate or solvate) |  | 
7 | 135 °C | CC(C)C(N)CN1CCC(Nc2nc3ccccc3n2Cc2ccc3ccccc3n2)CC1 (racemic) [Compound 6, (±)-N-[1-(2-amino-3-methylbutyl)-4-piperidinyl]-1-(2-quinolinylmethyl)-1H-benzimidazol-2-amine] | 794 | IC50 ([1]; human respiratory syncytial virus, 168 h, antiviral activity against Respiratory Syncytial Virus, HeLa cells, 7 days after infection, MTT, read-out: IC50): 12.6 nM; CC50 at 7 days [2]: 10 µM
